Assay results published in publication PMC4075192 (Drug metabolism and pharmacokinetics, 2013).
Changes are numbered by the printed parent chain. Read-outs that look alike come from different tables or passages of the source.

What was measured:
[1] = molecular target: CYP1A2 (Homo sapiens, UniProt P05177); assay: Inhibition of CYP1A2; settings: 50 μM phenacetin
[2] = molecular target: T1, CYP2C19 (Homo sapiens, UniProt P33261); settings: fraction of substrate metabolized by the inhibited CYP pathway (CYP2C19); cited from earlier work
[3] = molecular target: T2, CYP2C9 (Homo sapiens, UniProt P11712); settings: AUCI/AUC with multiple doses of efavirenz (steady state Cmax); CYP2C9 substrates
[4] = molecular target: T2, CYP2C9; settings: fraction of substrate metabolized by the inhibited CYP pathway (CYP2C9); cited from earlier work
[5] = test system: CYP2B6; settings: cited from earlier work
[6] = test system: UGT2B7; settings: in vitro; cited from earlier work
[7] = molecular target: T3, CYP2A6 (Homo sapiens, UniProt P11509); assay: Inhibition of CYP2A6; format: in vitro ADME; settings: pooled human liver microsomes, pH 7.4, probe coumarin (7-hydroxylation)
T3 sequence (P11509 1-494): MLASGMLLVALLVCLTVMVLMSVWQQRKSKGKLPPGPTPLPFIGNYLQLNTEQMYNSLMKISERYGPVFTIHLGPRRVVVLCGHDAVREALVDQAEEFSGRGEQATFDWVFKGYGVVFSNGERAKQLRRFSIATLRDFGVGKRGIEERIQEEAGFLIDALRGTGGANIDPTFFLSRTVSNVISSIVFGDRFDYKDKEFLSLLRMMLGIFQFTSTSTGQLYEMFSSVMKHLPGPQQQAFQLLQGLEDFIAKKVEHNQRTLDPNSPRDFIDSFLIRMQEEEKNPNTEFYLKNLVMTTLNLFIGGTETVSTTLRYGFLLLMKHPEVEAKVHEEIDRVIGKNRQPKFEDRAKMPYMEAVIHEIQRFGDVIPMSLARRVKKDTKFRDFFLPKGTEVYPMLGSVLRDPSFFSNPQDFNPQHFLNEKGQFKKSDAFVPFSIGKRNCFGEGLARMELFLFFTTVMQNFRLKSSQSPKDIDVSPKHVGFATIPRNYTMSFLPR

[8] = molecular target: CYP2D6 (Homo sapiens, UniProt P10635); assay: Inhibition of CYP2D6; format: in vitro ADME; settings: pooled human liver microsomes, pH 7.4, probe dextromethorphan (O-demethylation)
[9] = molecular target: T4, CYP2C8 (Homo sapiens, UniProt P10632, K399R/R139K); assay: Inhibition of CYP2C8
T4 sequence (P10632 1-490 R139K/K399R): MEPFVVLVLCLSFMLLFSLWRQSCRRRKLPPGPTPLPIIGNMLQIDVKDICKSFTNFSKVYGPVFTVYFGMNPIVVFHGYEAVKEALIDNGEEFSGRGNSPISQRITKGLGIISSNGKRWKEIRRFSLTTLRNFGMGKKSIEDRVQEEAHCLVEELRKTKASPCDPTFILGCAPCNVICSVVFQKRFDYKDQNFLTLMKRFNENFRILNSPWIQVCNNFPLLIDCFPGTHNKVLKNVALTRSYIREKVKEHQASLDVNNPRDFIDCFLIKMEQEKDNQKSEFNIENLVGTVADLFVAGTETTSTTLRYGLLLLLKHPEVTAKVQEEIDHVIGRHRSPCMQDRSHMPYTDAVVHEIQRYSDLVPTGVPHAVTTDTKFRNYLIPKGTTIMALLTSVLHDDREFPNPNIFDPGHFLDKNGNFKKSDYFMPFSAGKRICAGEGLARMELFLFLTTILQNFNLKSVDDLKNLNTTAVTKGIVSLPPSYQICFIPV

[10] = molecular target: T5, CYP2C8 (Homo sapiens, UniProt P10632); assay: Inhibition of CYP2C8; settings: pooled HLMs; substrate amodiaquine
T5 sequence (P10632 1-490): T4 sequence (P10632 1-490 R139K/K399R) with K139R, R399K

[11] = molecular target: T2, CYP2C9; assay: Inhibition of CYP2C9; format: in vitro ADME
[12] = Efavirenz plasma pharmacokinetics; format: in vivo; settings: human, po, 600 mg
[13] = cited from earlier work
[14] = molecular target: T6, expressed CYP2C8 (Homo sapiens, UniProt P10632); assay: Inhibition of expressed CYP2C8; format: in vitro ADME
T6 sequence (P10632 1-490): T4 sequence (P10632 1-490 R139K/K399R) with K139R, R399K

[15] = molecular target: T7, expressed CYP2B6 (Homo sapiens, UniProt P20813); assay: Inhibition of expressed CYP2B6; format: in vitro ADME; settings: substrate bupropion
T7 sequence (P20813 1-491): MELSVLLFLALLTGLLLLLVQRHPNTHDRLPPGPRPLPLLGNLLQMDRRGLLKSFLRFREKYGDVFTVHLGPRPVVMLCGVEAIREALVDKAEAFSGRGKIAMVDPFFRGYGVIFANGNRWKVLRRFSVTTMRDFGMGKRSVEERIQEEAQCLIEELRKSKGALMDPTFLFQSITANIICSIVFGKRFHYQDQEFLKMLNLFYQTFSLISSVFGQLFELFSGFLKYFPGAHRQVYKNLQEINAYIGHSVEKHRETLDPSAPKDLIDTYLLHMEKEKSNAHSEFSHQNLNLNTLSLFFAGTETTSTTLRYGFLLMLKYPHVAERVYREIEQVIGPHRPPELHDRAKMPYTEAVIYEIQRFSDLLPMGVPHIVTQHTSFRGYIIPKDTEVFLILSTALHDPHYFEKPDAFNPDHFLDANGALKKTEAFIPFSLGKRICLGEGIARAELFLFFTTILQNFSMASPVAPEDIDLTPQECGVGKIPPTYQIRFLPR

[16] = molecular target: T1, CYP2C19; assay: Inhibition of CYP2C19; format: in vitro ADME
[17] = molecular target: T2, CYP2C9; settings: in vitro study; cited from earlier work
[18] = molecular target: expressed CYP2B6; settings: cited from earlier work
[19] = molecular target: CYP3A (Homo sapiens, UniProt P08684); assay: Inhibition of CYP3A; format: in vitro ADME; settings: pooled human liver microsomes, pH 7.4, probe testosterone (6-β hydroxylation), 10 μM, inhibition of CYP3A activity, 50 μM efavirenz, pooled HLMs, 10 μM testosterone
[20] = molecular target: T5, CYP2C8; assay: in vitro; settings: microsomes, pH 7.4
[21] = test system: CYP isoforms (eight major CYPs except for CYP2B6); assay: Time-dependent inhibition of CYP isoforms in pooled HLMs; format: in vitro ADME, human; settings: 50 μM efavirenz
[22] = test system: CYP2C8; settings: expressed CYPs; cited from earlier work
[23] = molecular target: T8, CYP2B6 (Homo sapiens, UniProt P20813); settings: substrate bupropion
T8 sequence (P20813 1-491): T7 sequence (P20813 1-491)

T1 sequence (P33261 whole entry): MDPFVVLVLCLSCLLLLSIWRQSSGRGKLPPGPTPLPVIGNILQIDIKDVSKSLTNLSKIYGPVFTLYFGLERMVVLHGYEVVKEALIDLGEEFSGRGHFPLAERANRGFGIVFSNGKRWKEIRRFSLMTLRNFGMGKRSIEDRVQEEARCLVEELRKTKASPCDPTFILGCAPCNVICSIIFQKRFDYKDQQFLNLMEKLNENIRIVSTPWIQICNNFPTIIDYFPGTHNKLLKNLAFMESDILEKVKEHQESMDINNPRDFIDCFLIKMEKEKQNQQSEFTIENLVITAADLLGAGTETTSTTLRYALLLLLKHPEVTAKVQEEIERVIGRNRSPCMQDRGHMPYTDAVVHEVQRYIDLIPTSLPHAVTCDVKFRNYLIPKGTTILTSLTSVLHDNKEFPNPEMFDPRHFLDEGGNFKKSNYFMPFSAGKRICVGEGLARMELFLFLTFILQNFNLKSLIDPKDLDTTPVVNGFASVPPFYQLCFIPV
T2 sequence (P11712 whole entry): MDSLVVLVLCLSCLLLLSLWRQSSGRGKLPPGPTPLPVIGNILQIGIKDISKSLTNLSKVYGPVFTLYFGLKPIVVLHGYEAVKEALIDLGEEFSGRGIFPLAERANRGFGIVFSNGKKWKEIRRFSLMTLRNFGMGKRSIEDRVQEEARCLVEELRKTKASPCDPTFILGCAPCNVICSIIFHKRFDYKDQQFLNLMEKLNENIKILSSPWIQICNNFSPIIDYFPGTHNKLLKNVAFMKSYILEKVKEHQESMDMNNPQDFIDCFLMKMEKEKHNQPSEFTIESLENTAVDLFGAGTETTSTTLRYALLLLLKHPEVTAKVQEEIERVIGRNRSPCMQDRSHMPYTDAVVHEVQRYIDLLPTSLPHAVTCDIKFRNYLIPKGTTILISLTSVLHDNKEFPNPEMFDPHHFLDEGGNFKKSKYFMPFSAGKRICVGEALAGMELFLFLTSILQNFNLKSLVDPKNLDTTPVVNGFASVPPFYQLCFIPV
CYP2D6, sequence (P10635 whole entry): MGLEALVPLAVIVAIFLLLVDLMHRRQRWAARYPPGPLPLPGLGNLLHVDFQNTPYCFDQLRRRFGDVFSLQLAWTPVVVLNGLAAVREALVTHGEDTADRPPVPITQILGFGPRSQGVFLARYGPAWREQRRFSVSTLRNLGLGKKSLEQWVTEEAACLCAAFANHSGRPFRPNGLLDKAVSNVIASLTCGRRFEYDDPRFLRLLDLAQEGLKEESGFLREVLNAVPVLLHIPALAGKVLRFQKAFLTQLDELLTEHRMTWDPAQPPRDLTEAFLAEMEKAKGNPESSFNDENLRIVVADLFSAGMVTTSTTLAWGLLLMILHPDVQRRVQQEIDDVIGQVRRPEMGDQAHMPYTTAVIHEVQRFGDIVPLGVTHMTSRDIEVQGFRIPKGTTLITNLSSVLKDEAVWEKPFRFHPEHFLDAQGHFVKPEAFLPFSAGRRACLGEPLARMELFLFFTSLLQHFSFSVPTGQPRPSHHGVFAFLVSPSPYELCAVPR
CYP1A2, sequence (P05177 whole entry): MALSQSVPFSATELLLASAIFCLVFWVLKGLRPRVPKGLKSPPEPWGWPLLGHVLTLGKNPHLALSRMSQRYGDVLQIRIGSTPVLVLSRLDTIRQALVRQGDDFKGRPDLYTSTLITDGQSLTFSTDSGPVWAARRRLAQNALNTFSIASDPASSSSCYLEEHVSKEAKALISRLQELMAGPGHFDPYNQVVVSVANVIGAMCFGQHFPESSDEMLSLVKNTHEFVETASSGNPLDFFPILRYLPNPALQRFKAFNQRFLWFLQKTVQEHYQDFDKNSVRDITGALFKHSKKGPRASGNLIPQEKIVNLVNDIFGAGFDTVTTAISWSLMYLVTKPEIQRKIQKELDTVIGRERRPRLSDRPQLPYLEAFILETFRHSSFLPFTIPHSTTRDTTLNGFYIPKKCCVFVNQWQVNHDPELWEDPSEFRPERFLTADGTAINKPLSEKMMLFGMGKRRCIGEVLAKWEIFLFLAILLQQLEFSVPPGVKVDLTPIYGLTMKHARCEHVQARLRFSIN
CYP3A, sequence (P08684 2-503): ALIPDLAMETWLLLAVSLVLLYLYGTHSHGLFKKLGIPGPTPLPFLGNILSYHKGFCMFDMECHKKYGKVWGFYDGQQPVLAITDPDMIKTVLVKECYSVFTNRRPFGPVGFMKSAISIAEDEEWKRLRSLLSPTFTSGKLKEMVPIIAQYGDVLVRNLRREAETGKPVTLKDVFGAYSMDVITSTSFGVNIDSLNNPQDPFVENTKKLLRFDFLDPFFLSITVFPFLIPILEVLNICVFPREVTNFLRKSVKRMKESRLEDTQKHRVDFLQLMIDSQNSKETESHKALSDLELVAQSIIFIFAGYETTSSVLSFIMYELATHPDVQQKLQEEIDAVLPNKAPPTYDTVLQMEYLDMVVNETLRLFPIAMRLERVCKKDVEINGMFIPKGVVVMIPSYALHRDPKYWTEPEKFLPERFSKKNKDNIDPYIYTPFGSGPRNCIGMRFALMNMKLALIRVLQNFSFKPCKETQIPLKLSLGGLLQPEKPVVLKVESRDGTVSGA

SMILES: O=C1Nc2c(O)cc(Cl)cc2[C@@](C#CC2CC2)(C(F)(F)F)O1 [8-hydroxyefavirenz]
- inhibition of CYP1A2 ([1]; 8-hydroxyefavirenz up to 10 μM (0.5 to 10 μM), pooled HLMs 1 mg/ml, 30 min): ~ 20%

SMILES: COc1ccc2[nH]c([S+]([O-])Cc3ncc(C)c(OC)c3C)nc2c1 (stereo not shown) [Omeprazole]
- fm [2]: 0.87 [26])

SMILES: O=C1NC(=O)C(c2ccccc2)(c2ccccc2)N1 [Phenytoin]
- Predicted AUC Ratio [3]: 1.7 -2.0
- fm [4]: 0.90 [57])

SMILES: CC(=O)C[C@@H](c1ccccc1)c1c(O)c2ccccc2oc1=O [S-Warfarin]
- Predicted AUC Ratio [3]: 1.7 -2.0

SMILES: CC(NC(C)(C)C)C(=O)c1cccc(Cl)c1 (stereo not shown) [bupropion]
- Km ([5]; bupropion as CYP2B6 substrate): 90 to 130 µM

SMILES: O=C1Nc2ccc(Cl)cc2[C@@](C#CC2CC2)(C(F)(F)F)O1 [efavirenz, Efavirenz]
- inhibition of UGT2B7 [6]: moderate inhibitor
- inhibition at 10 μM [7]: < 10%
- inhibition at 50 μM ([7]; 10 μM): < 10%
- inhibition at 10 μM [8]: < 10%
- inhibition at 50 μM ([8]; 10 μM): < 10%
- Ki [9]: 4.8 ± 0.35 µM
- inhibition model ([9]; HLMs with CYP2C8*3/*3, substrate amodiaquine): competitive
- inhibition model [10]: competitive
- Ki [11]: 19.5 ± 2.78 µM
- inhibition model ([11]; pooled HLMs, substrate tolbutamide): non-competitive
- Cmax [12]: 4.6 to 8.4 µM
- inhibition of CYP1A2 activity ([1]; efavirenz 10 and 50 μM, pooled HLMs): did not indicate that efavirenz inhibits CYP1A2 activity
- Km [5]: 13 to 20 µM
- Ka absorption rate constant [13]: 0.3 h⁻¹
- Ki [14]: 6.05 ± 2.86 µM
- inhibition model ([14]; expressed CYP2C8, substrate amodiaquine): competitive
- inhibition model [15]: competitive
- Ki [16]: 21.3 ± 2.57 µM
- inhibition model ([16]; pooled HLMs, substrate S-mephenytoin): competitive
- IC50 [17]: ~15 µM
- KI value (time-dependent inhibition) [18]: 30 µM
- inhibition at 50 μM [19]: > 20%
- Ki [20]: 4.78 ± 2.24 µM
- time-dependent inhibition of CYP activity ([21]; preincubation for 30 min): only marginally inhibited
- time-dependent inactivation ([21]; shorter preincubation times (5-15 min)): did not show any indication of time-dependent inactivation
- IC50 [22]: 4 µM
- inhibition model ([23]; CMV negative HLMs): competitive
- inhibition model ([23]; pooled HLMs): competitive
